Assay [1] deals with recombinant GSK3β kinase (Homo sapiens (Human), UniProt P49841). Kind of assay: GSK3β kinase assay (Ser/Thr 09 peptide Z-lyte, FRET).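 Note: FRET read-out as coumarin over fluorescein emission ratio, compounds incubated one hour at room temperature, IC50 from dose-response curve fit.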 The assay is classed as biochemical.
Experimental: Each compound is dissolved in DMSO as a 10 mM stock and used to prepare compound source plates. Serial dilution (1:3, 11-point dose-response curves from 10 M to 0.0003 M) and compound transfer was performed using the ECHO 550 (Labcyte, Sunnyvale, Calif.) into 1536-well black-walled round bottom plates (Corning).
This is a non-radioactive assay using fluorescence resonance energy transfer (FRET) between coumarin and fluorescein to detect kinase activity which is represented as ratio of coumarin emission/fluorescein emission.
The mixture is allowed to incubate with the representative compounds for one hour at room temperature. All reactions were performed in duplicate. Unphosphorylated (“0% Control”) and phosphorylated (“100% control”) forms of Ser/Thr 18 serve as control reactions.
After incubation, diluted Development Buffer is added to the reaction and allowed to further incubate for one hour at room temperature.
Dose-response curves are generated and inhibitory concentration (IC50) values are calculated using non-linear regression curve fit in the Dotmatics' Studies Software (Bishops Stortford, UK).
The subject of assay [2] is Wnt activity (SW480 colon carcinoma cells stably expressing the Sp5-Luc reporter gene). Kind of assay: Wnt activity screening assay (Sp5-Luc reporter gene assay). The format is cell-based, human. The settings on record: Homo sapiens; for pEC50: 36 to 48 hours; for inhibition at 10 µM: read-out: percent inhibition at 10 μM (given for EC50 >10 μM), 10 μM. Summed up: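 EC50 values come from a variable-slope four-parameter fit of luminescence normalized to DMSO-only wells. The read-out follows 36–48 h incubation at 37 °C, 5% CO2, in DMEM containing 1% fetal bovine serum. Cells are hygromycin-selected SW480 stably expressing firefly luciferase under a Wnt-responsive Sp5 promoter (eight TCF/LEF sites).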

Assay [3] concerns LL29 cells (primary human fibroblasts derived from IPF patients), α-smooth muscle actin. Nature of the assay: Inhibition of fibrotic process: TGF-β1-treated primary human fibroblasts, αSMA staining.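 For all read-outs here: controls were TGF-β1-stimulated wells with DMSO vehicle as the positive reference and cells given DMSO alone as the negative reference.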 The assay is classed as cell-based. The settings on record: Homo sapiens, Fibroblast; for pEC50: 96 h, TGF-β1 20 ng/mL, 4 days, % cells positive for αSMA; for inhibition at 10 µM: read-out: percent inhibition at 10 μM (given for EC50 >10 μM), TGF-β1, αSMA, 10 μM.

Assay [4] concerns the target recombinant DYRK1A kinase (Homo sapiens (Human), UniProt Q13627). Nature of the assay: DYRK1A kinase assay (Ser/Thr 18 peptide Z-lyte, FRET).
Experimental: Each compound was dissolved in DMSO as a 10 mM stock and used to prepare compound source plates.
This is a non-radioactive assay using fluorescence resonance energy transfer (FRET) between coumarin and fluorescein to detect kinase activity which is represented as a ratio of coumarin emission/fluorescein emission.
The mixture was allowed to incubate with the representative compounds for one hour at room temperature. All reactions were performed in duplicate. Unphosphorylated (“0% Control”) and phosphorylated (“100% control”) forms of Ser/Thr 18 served as control reactions. Additionally, an 11-point dose-response curve of Staurosporine (luM top) was run to serve as a positive compound control.
After incubation, Development Reagent A was diluted in Development Buffer then added to the reaction and allowed to further incubate for one hour at room temperature.
Dose-response curves were generated and inhibitory concentration (IC50) values were calculated using non-linear regression curve fit in the Dotmatics' Studies Software (Bishops Stortford, UK).
Assay [5] has as its system IL-6 in human peripheral blood mononuclear cells (huPBMCs). Nature of the assay: IL-6 inhibition in LPS-stimulated human peripheral blood mononuclear cells (HTRF). The settings on record: Homo sapiens, PBMC; for pEC50: LPS 50 ng/mL, 22 hours, IL-6 HTRF; for inhibition at 10 µM: read-out: percent inhibition at 10 μM (given for EC50 >10 μM), LPS, IL-6, 10 μM. The assay is classed as cell-based. In outline:
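Compound-treated huPBMCs (1×10e6 cells/mL, 1% FBS-RPMI) were stimulated after 2 h with LPS (50 ng/mL) for another 22 h at 37° C. An anti-IL-6 HTRF pair reported IL-6 as the 665/620 nm ratio; activity relative to DMSO, EC50 by 4-parameter Levenberg-Marquardt fitting, duplicates.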

In assay [6] the test system is SW480 colon carcinoma cells. Nature of the assay: Cell viability assay (CellTiter-Glo). The assay is classed as cell-based, human. The settings on record: Homo sapiens; for pEC50: 96 h, four days, CellTiter-Glo; for inhibition at 10 µM: read-out: percent inhibition at 10 μM (given for EC50 >10 μM), 10 μM. Background: Cellular ATP, detected with luciferase, serves as a proxy for viable cell number.

[7] abbreviates: GSK3β kinase, head says EC50, method says IC50, ATP 46 μM.
[8] abbreviates: DYRK1A kinase, head says EC50, method says IC50, ATP 30 μM.

pEC50: −log10 of the molar value. Like-named read-outs stand apart in the source and are kept apart here. Where only a bound is given, the exact number is not on record here.

As usually defined, the pEC50 is the EC50 on a negative log10 scale, so that one unit is a factor of ten. As a reminder, the inhibition is the drop in the measured response relative to a control, in per cent.

Chain of recombinant GSK3β kinase (P49841 whole entry): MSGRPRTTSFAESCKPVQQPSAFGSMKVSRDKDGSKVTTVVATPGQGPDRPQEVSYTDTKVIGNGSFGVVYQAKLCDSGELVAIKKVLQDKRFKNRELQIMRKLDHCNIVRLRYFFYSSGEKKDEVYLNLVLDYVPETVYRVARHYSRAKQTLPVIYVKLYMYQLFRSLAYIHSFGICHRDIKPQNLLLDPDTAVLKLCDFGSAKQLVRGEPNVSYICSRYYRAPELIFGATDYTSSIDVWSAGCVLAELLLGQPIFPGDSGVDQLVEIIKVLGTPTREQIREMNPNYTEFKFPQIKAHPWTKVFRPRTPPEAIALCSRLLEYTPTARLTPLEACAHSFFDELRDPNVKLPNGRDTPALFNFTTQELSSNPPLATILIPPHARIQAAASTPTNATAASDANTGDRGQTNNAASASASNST

Take `O=C(Nc1cc2cc(-c3cncc(OC4CCNCC4)c3)ccc2cn1)c1ccc(F)cc1` [Compound 35, 4-Fluoro-N-(6-(5-(piperidin-4-yloxy)pyridin-3-yl)isoquinolin-3-yl) benzamide]: the negative logarithm of the EC50 (pEC50) was under 5.00 in assay [1] (setting [7]); 5.86 in assay [2]; 5.55 in assay [3]; 8.00 in assay [4] (setting [8]); 5.99 in assay [5]; 5.94 in assay [6].
With `CN1CCN(c2cc(C(=O)Nc3cc4cc(-c5cncc(N(C)C)n5)ccc4cn3)ccn2)CC1` [Compound 120, N-(6-(6-(Dimethylamino)pyrazin-2-yl)isoquinolin-3-yl)-2-(4-methylpiperazin-1-yl)isonicotinamide], the pEC50 was under 5.00 in assay [1] (setting [7]); 5.56 in assay [2]; 6.21 in assay [3]; 8.15 in assay [4] (setting [8]); 5.05 in assay [5]; 5.48 in assay [6].
Consider `CC(C)Nc1cncc(-c2ccc3cnc(NC(=O)c4cccc(C5CCNCC5)c4)cc3c2)c1` [Compound 41, N-(6-(5-(Isopropylamino)pyridin-3-yl)isoquinolin-3-yl)-3-(piperidin-4-yl) benzamide], for which the pEC50 was under 5.00 in assay [1] (setting [7]); 6.24 in assay [2]; 6.24 in assay [3]; 8.40 in assay [4] (setting [8]); 5.95 in assay [5]; 6.20 in assay [6].
For the compound `CC(C)Nc1cncc(-c2ccc3cnc(NC(=O)c4cn(C5CCN(CCF)CC5)nn4)cc3c2)n1` [Compound 95, 1-(1-(2-fluoroethyl)piperidin-4-yl)-N-(6-(6-(isopropylamino)pyrazin-2-yl)isoquinolin-3-yl)-1H-1,2,3-triazole-4-carboxamide], the negative-log EC50 (pEC50) in assay [1] (setting [7]) was 5.16; in assay [2], 7.47; in assay [3], 7.04; in assay [4] (setting [8]), 8.70; in assay [5] it was 6.68; in assay [6], 5.98.
Turning to `CNc1ccc(-c2ccc3cnc(NC(=O)c4ccnc(N5CCN(C)CC5)c4)cc3c2)cn1` [Compound 40, N-(6-(6-(Methylamino)pyridin-3-yl)isoquinolin-3-yl)-2-(4-methylpiperazin-1-yl)isonicotinamide], the negative-log EC50 (pEC50) was under 5.00 in assay [1]; 5.38 in assay [2]; 5.83 in assay [3]; 7.19 in assay [4]; under 5.00 in assay [5]; 5.47 in assay [6]. Besides, the inhibition at 10 µM in assay [5] was 3.7%.
As for `CN1CCC(c2nc(C(=O)Nc3cc4cc(-c5cncc(F)c5)ccc4cn3)co2)CC1` [Compound 143, N-(6-(5-Fluoropyridin-3-yl)isoquinolin-3-yl)-2-(1-methylpiperidin-4-yl) oxazole-4-carboxamide], the pEC50 in assay [1] (setting [7]) was under 5.00; in assay [2], under 5.00; in assay [3], 5.61; in assay [4] (setting [8]), 5.17; in assay [5] it was under 5.00; in assay [6], under 5.00. In addition, the inhibition at 10 µM in assay [2] is 0.8%; in assay [5], 8.2%; in assay [6], 8%.
Take `CN1CCN(c2cc(C(=O)Nc3cc4cc(-c5cncc6[nH]ccc56)ccc4cn3)ccn2)CC1` [Compound 131, N-(6-(1H-Pyrrolo[2,3-c]pyridin-4-yl)isoquinolin-3-yl)-2-(4-methylpiperazin-1-yl)isonicotinamide]: the negative logarithm of the EC50 (pEC50) in assay [1] (setting [7]) is under 5.00; in assay [2] it was 6.63; in assay [3], 6.22; in assay [4] (setting [8]), 8.52; in assay [5] it was 5.54; in assay [6], 6.55.
As to `CN1CCN(c2cc(C(=O)Nc3cc4cc(-c5cncc(N)c5)ccc4cn3)ccn2)CC1` [Compound 38, N-(6-(5-Aminopyridin-3-yl)isoquinolin-3-yl)-2-(4-methylpiperazin-1-yl) isonicotinamide], the pEC50 in assay [1] was under 5.00; in assay [2] it was 7.12; in assay [3], 6.22; in assay [4] it was 8.70; in assay [5] it was 6.12; in assay [6] it was 6.65.
Take `COc1cncc(-c2ccc3cnc(NC(=O)c4ccnc(N5CCN(C)CC5)c4)cc3c2)c1` [Compound 34, N-(6-(5-Methoxypyridin-3-yl)isoquinolin-3-yl)-2-(4-methylpiperazin-1-yl) isonicotinamide]: the negative logarithm of the EC50 (pEC50) in assay [1] (setting [7]) was under 5.00; in assay [2], 5.98; in assay [3], 6.29; in assay [4] (setting [8]), 8.40; in assay [5], 5.67; in assay [6], 5.92.
For `CC(C)Nc1cncc(-c2ccc3cnc(NC(=O)c4ccnc(N5CCN(C)CC5)c4)cc3c2)n1` [Compound 97, N-(6-(6-(Isopropylamino)pyrazin-2-yl)isoquinolin-3-yl)-2-(4-methylpiperazin-1-yl)isonicotinamide], the pEC50 in assay [1] (setting [7]) is 5.20; in assay [2], 8.15; in assay [3], 6.51; in assay [4] (setting [8]) it was 8.70; in assay [5], 6.74; in assay [6] it was 6.65.
As for `CN1CCC(n2cc(C(=O)Nc3cc4cc(-c5cncc6[nH]ccc56)ccc4cn3)cn2)CC1` [Compound 128, N-(6-(1H-Pyrrolo[2,3-c]pyridin-4-yl)isoquinolin-3-yl)-1-(1-methylpiperidin-4-yl)-1H-pyrazole-4-carboxamide], the negative logarithm of the EC50 (pEC50) in assay [1] (setting [7]) was 5.04; in assay [2], 7.89; in assay [3], 6.99; in assay [4] (setting [8]), 8.40; in assay [5], 6.17; in assay [6], 7.51.
As to `CN1CCN(c2cc(C(=O)Nc3cc4cc(-c5cncc(N(C)C)c5)ccc4cn3)ccn2)CC1` [Compound 48, N-(6-(5-(Dimethylamino)pyridin-3-yl)isoquinolin-3-yl)-2-(4-methylpiperazin-1-yl)isonicotinamide], the pEC50 was under 5.00 in assay [1]; 5.64 in assay [2]; 5.31 in assay [3]; 7.40 in assay [4]; 5.01 in assay [5]; 5.18 in assay [6].
For `CC(C)N1CCC(Nc2cncc(-c3ccc4cnc(NC(=O)C5CC5)cc4c3)n2)CC1` [Compound 116, N-(6-(6-((1-Isopropylpiperidin-4-yl)amino)pyrazin-2-yl)isoquinolin-3-yl) cyclopropanecarboxamide], the pEC50 in assay [1] (setting [7]) is 7.24; in assay [2], 6.70; in assay [3] it was 6.98; in assay [4] (setting [8]), 9.00; in assay [5], 6.45; in assay [6], 6.31.
Take `CC(C)N1CCC(c2nc(C(=O)Nc3cc4cc(-c5cncc(F)c5)ccc4cn3)co2)CC1` [Compound 150, N-(6-(5-Fluoropyridin-3-yl)isoquinolin-3-yl)-2-(1-isopropylpiperidin-4-yl) oxazole-4-carboxamide]: the pEC50 in assay [1] is under 5.00; in assay [2], under 5.00; in assay [3] it was under 5.00; in assay [4] it was 5.79; in assay [5], under 5.00; in assay [6] it was under 5.00. Also, the inhibition at 10 µM worked out at 15.2% in assay [2], 42% in assay [3], 10.7% in assay [5] and 10.9% in assay [6].
As for `CC(C)N1CCC(Nc2cncc(-c3ccc4cnc(NC(=O)C5CCCC5)cc4c3)n2)CC1` [Compound 118, N-(6-(6-((1-Isopropylpiperidin-4-yl)amino)pyrazin-2-yl)isoquinolin-3-yl) cyclopentanecarboxamide], the pEC50 in assay [1] (setting [7]) is 7.11; in assay [2], 6.08; in assay [3] it was 6.83; in assay [4] (setting [8]), 9.00; in assay [5] it was 6.03; in assay [6] it was 5.93.
In the case of `NC1CN(c2cncc(-c3ccc4cnc(NC(=O)c5ccc(F)cc5)cc4c3)n2)C1` [Compound 122, N-(6-(6-(3-aminoazetidin-1-yl)pyrazin-2-yl)isoquinolin-3-yl)-4-fluorobenzamide], the negative-log EC50 (pEC50) in assay [1] (setting [7]) was under 5.00; in assay [2], 5.21; in assay [3], under 5.00; in assay [4] (setting [8]) it was 7.96; in assay [5] it was 5.50; in assay [6] it was 5.05. For the same compound, the inhibition at 10 µM in assay [3] is 4.8%.
As for `O=C(Nc1cc2cc(-c3cncc(NC4CCNCC4)n3)ccc2cn1)C1CCC(F)(F)CC1` [Compound 108, 4,4-Difluoro-N-(6-(6-(piperidin-4-ylamino)pyrazin-2-yl)isoquinolin-3-yl) cyclohexane-1-carboxamide], the pEC50 in assay [1] (setting [7]) is 7.04; in assay [2], 6.34; in assay [3] it was 5.47; in assay [4] (setting [8]) it was 8.70; in assay [5] it was 6.41; in assay [6], 5.81.

The values are drawn from patent US10653688B2, “6-(6-membered heteroaryl and aryl)isoquinolin-3-yl carboxamides and preparation and use thereof” (Samumed, LLC, priority 2017, dated 2020).
